Data reported in BindingDB's records for doi:10.1021/jm0704550 (Cnrs, 2007).

Target: Growth hormone secretagogue receptor type 1 (Homo sapiens, UniProt Q92847)
Experiment: Receptor Binding Studies

Sequence of Growth hormone secretagogue receptor type 1 (Q92847 whole entry): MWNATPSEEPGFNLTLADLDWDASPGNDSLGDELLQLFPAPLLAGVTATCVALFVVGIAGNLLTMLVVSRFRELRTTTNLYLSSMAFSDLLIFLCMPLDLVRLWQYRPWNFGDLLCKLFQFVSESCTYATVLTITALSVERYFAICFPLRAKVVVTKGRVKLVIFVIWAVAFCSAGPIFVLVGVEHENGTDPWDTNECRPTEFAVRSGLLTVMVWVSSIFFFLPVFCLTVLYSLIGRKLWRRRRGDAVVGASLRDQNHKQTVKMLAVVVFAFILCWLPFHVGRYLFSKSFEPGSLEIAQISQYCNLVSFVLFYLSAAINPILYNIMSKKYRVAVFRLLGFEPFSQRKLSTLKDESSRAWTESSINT

Row | EC50 | SMILES
1 | 1.6 nM | COc1ccc(Cn2c(CCc3ccccc3)nnc2[C@@H](Cc2c[nH]c3ccccc23)NC(=O)C2CCNCC2)cc1 [N-[(1R)-2-(1H-indol-3-yl)-1-{4-[(4-methoxyphenyl)methyl]-5-(2-phenylethyl)-4H-1,2,4-triazol-3-yl}ethyl]piperidine-4-carboxamide]
2 | 8.7 nM | COc1ccc(Cn2c(CCc3c[nH]c4ccccc34)nnc2[C@@H](Cc2c[nH]c3ccccc23)NC(=O)C2CNCCN2)cc1 (stereo partly drawn) [N-[(1R)-2-(1H-indol-3-yl)-1-{5-[2-(1H-indol-3-yl)ethyl]-4-[(4-methoxyphenyl)methyl]-4H-1,2,4-triazol-3-yl}ethyl]piperazine-2-carboxamide]
